In article PMC7896091, “Synthesis of novel phytol-derived γ-butyrolactones and evaluation of their biological activity” (Scientific Reports, 2021):

Key:
Myzus persicae [1] = experiment: Aphid settling (choice test) on treated vs control leaves of Brassica rapa subsp. pekinensis; format: in vivo; conditions: for Mean number of aphids settled on treated (test) leaf: 0.1% solution in 70% ethanol, mean (± SD), n = 8, 20 aphids/replicate; for Effect on aphid settling behavior (deterrent / attractant): choice test, 0.1% solution, significance p < 0.05 Student t-test
Procedure: (§1) The peach potato aphids Myzus persicae (Sulzer) and the Chinese cabbage Brassica rapa subsp. pekinensis (Lour.) Hanelt were reared in laboratory at 20 °C, 65% r.h., and L16:8D photoperiod. One to seven days old apterous females of M. persicae and 3-week old plants with 4–5 fully developed leaves were used for experiments. M. persicae were obtained from the laboratory culture maintained at the Department of Botany and Ecology for many generations since 2000. All experiments were carried out under the same conditions of temperature, relative humidity, and photoperiod. The bioassays were started at 10–11.a.m. Each compound was dissolved in 70% ethanol to obtain the recommended 0.1% solution[40]. All compounds were applied on the adaxial and abaxial leaf surfaces by immersing a leaf in the ethanolic solution of a given compound for 30 s.[20]. Control leaves of similar size were immersed in 70% ethanol that was used as a solvent for the studied compounds. Experiments were performed 1 h after the compounds application to allow the evaporation of the solvent. Every plant and aphid were used only once.
This bioassay allows the study of aphid host preferences under semi-natural conditions. In the present study, aphids were given free choice between control and treated excised leaves that were placed in a Petri dish. Aphids were placed in the dish equidistance from treated and untreated leaves, so that aphids could choose between treated (on one half of a Petri dish) and control leaves (on the other half of the dish). […] Each experiment was replicated 8 times (n = 8 replicates, 20 viviparous apterous females/replicate). Aphids that were moving or not on any of the leaves were not counted.
The data of the choice-test were analyzed using Student’s t-test (STATISTICA 13.1. package). […] If aphids settled mainly on the control leaf (p < 0.05), the compound tested in the respective choice-test was stated a deterrent. From the data thus obtained the relative index of deterrence (DI) was calculated: DI = (C − T/C + T) where C was the number of aphids settled on control leaf, T was the number of aphids settled on the leaf treated with the tested compound. The value of DI ranged between 1 (ideal deterrent) and − 1 (ideal attractant)[41].

LoVo/DX cells = experiment: Antiproliferative activity, SRB assay, doxorubicin resistant subline; format: cell-based, human; conditions: for IC50: 72 h exposure, SRB, mean ± SD, n.a = no activity in concentration of 5, 25, 125, 625 μM; for Selectivity index SI, LoVo/DX: SI = IC50 BALB/3T3 / IC50 LoVo/DX
Procedure: Cell lines were cultured according to the protocol described before. […] All culture media were supplemented with 2 mM L-glutamine (Sigma-Aldrich, Germany), 100 units/mL penicillin, and 100 µg/mL streptomycin (both from Polfa Tarchomin S.A., Poland). All cell lines were grown at 37 °C with 5% CO2 humidified atmosphere. The solutions of the compounds (50 mM) were prepared by dissolving the substances in DMSO (Sigma Aldrich, Germany). […] The in vitro cytotoxic effect of all agents was examined using the MTT (MV4-11) or SRB assay, described previously. […] Each compound in each concentration was tested in triplicate in a single experiment, which was repeated 3–5 times.

Myzus persicae [2] = experiment: EPG monitoring of aphid probing and feeding (no-choice test); format: in vivo; conditions: 8-h EPG; for Mean duration of probing (C + G + E) / Number of probes / Total duration of pathway (C) / Total duration of phloem phase (E) / Total duration of probing (C + G + E): 0.1% solution, n = 12; for Mean duration of probing (C + G + E) / Number of probes / Total duration of pathway (C) / Total duration of phloem phase (E) / Total duration of probing (C + G + E) / Number of probes before first phloem phase / Time from first probe to first phloem phase / Duration of first phloem phase / Total duration of phloem salivation E1 / Total duration of phloem sap ingestion E2 / Number of probes < 3 min: mean ± SE; for Number of probes before first phloem phase / Time from first probe to first phloem phase: activities in non-phloem tissues; for Number of probes before first phloem phase / Time from first probe to first phloem phase / Duration of first phloem phase / Total duration of phloem salivation E1 / Total duration of phloem sap ingestion E2 / Number of probes < 3 min: n = 10-12; for Duration of first phloem phase / Total duration of phloem salivation E1 / Total duration of phloem sap ingestion E2: activities in sieve elements; for Number of probes < 3 min: before first phloem phase; for Proportion of salivation in phloem phase: (duration of E1 / duration of E1 + E2)*100; for Proportion of phloem phase in total probing: index = duration of phloem phase E / duration of probing C + G + E
Procedure: as §1
Aphid probing and the phloem sap uptake by M. persicae was monitored using the technique of electronic registration of aphid probing in plant tissues, known as EPG (= Electrical Penetration Graph), that is frequently employed in insect–plant relationship studies considering insects with sucking-piercing mouthparts[42]–[44]. In this experimental set-up, aphid and plant are connected to electrodes and thus made parts of an electric circuit, which is completed when the aphid inserts its stylets into the plant. Weak voltage is supplied in the circuit, and all changing electric properties are recorded as EPG waveforms that can be correlated with aphid activities and stylet position in plant tissues[45],[46]. The parameters describing aphid behaviour during probing and feeding, such as total time of probing, proportion of phloem patterns E1 and E2, number of probes, etc., are good indicators of plant suitability or interference of probing by chemical or physical factors in individual plant tissues[44]–[46]. In the present study, aphids were attached to a golden wire electrode with conductive silver paint (epgsystems. eu) and starved for 1 h prior to the experiment. Probing behaviour of 12 apterous females/studied compound and control was monitored for 8 h continuously with Giga-4 and Giga-8 DC EPG with 1 GΩ of input resistance recording equipment (EPG Systems, Wageningen, The Netherlands). Each aphid was given access to a freshly prepared plant and each aphid/plant combination was used only once. Various behavioural phases were labelled manually using the Stylet + software (www.epgsystems.eu). The following aphid behaviours were distinguished: no penetration (waveform 'np' – aphid stylets outside the plant), pathway phase—penetration of non-phloem tissues (waveforms 'ABC'), phloem phase (salivation into sieve elements, waveform ‘E1’ and ingestion of phloem sap, waveform ‘E2’), and xylem phase (ingestion of xylem sap, waveform 'G'). Waveform ‘G’ occurred rarely irrespective of the treatment. Therefore, in all calculations the xylem phase was added to the pathway phase and termed as probing in non-phloem tissues. The E1/E2 transition patterns were included in E2. Waveform patterns that were not terminated before the end of the experimental period (8 h) were not excluded from the calculations. The parameters derived from EPG recordings were analyzed according to their frequency and duration in configuration related to activities in peripheral and vascular tissues.
All statistical calculations related to data of the no-choice test were performed using StatSoft, Inc. (2014) STATISTICA (data analysis software system), version 12, www.statsoft.com. […]

Compound | IC50 (LoVo/DX cells; Homo sapiens, LoVo/DX) | Mean number of aphids settled on treated (test) leaf (Myzus persicae [1]; 1 h after access) | Mean number of aphids settled on treated (test) leaf (Myzus persicae [1]; 2 h after access) | Mean number of aphids settled on treated (test) leaf (Myzus persicae [1]; 24 h after access) | Mean duration of probing (C + G + E) (Myzus persicae [2]) | Number of probes (Myzus persicae [2]) | Total duration of pathway (C) (Myzus persicae [2]) | Total duration of phloem phase (E) (Myzus persicae [2]) | Total duration of probing (C + G + E) (Myzus persicae [2]) | Number of probes before first phloem phase (Myzus persicae [2]) | Time from first probe to first phloem phase (Myzus persicae [2]) | Duration of first phloem phase (Myzus persicae [2]) | Total duration of phloem salivation E1 (Myzus persicae [2]) | Total duration of phloem sap ingestion E2 (Myzus persicae [2]) | Number of probes < 3 min (Myzus persicae [2]) | Proportion of salivation in phloem phase (Myzus persicae [2]) | Proportion of phloem phase in total probing (Myzus persicae [2]) | Selectivity index SI, LoVo/DX (LoVo/DX cells) | Effect on aphid settling behavior (deterrent / attractant) (Myzus persicae [1]) | further results
CC(C)CCCC(C)CCCC(C)CCC[C@]1(C)CC(=O)O[C@H]1CCl (stereo in doubt) [compound 7, cis-5-chloromethyl-4-methyl-4-(4′,8′,12′-trimethyltridecyl)dihydrofuran-2-one] | 237 ± 52.9 µM | 4.1 (± 1.0) | 3.5 (± 0.7) | 4.8 (± 0.9) | 1.0 ± 0.4 h | 18.7 ± 4.6 | 2.5 ± 0.5 h | 4.4 ± 0.8 h | 7.1 ± 0.5 h | 15.6 ± 4.7 | 3.3 ± 0.8 h | 3.6 ± 0.8 h | 1.2 ± 0.6 min | 4.4 ± 0.8 h | 9.6 ± 3.6 | 0.4% | 56.9% |  |  | 
CC(C)CCCC(C)CCCC(C)CCC[C@]1(C)CC(=O)O[C@@H]1CBr (stereo in doubt) [compound 4, trans-5-Bromomethyl-4-methyl-4-(4′,8′,12′-trimethyltridecyl)dihydrofuran-2-one] | 306 ± 136 µM | 2.9 (± 0.7) | 2.4 (± 0.6) | 4.9 (± 1.7) | 0.9 ± 0.3 h | 20.8 ± 5.2 | 2.4 ± 0.6 h | 4.8 ± 0.8 h | 7.4 ± 0.3 h | 17.2 ± 4.8 | 2.7 ± 0.8 h | 3.0 ± 0.9 h | 1.8 ± 0.6 min | 4.8 ± 0.8 h | 8.5 ± 3.6 | 1.5% | 62.9% | 1.14 |  | 
3,7,11,15-tetramethylhexadec-2-en-1-ol [Phytol (1), reference compound] |  | 10.4 (± 1.3) | 7.9 (± 1.0) | 6.6 (± 0.9) | 0.3 ± 0.1 h | 41.4 ± 7.6 | 4.2 ± 0.4 h | 2.8 ± 0.5 h | 7.1 ± 0.2 h |  |  | 1.6 ± 0.5 h | 8.4 ± 2.4 min | 2.7 ± 0.5 h | 18.8 ± 3.6 | 18.3% | 38.4% | 0.91 | deterrent properties | IC50 (LoVo/DX cells): 70.8 ± 3.9 µM; Number of probes before first phloem phase (Myzus persicae [2]; listed as phytol): 27.0 (± 5.3); Number of probes before first phloem phase (Myzus persicae [2]; listed as phytol (1)): 27.0 ± 5.3; Time from first probe to first phloem phase (Myzus persicae [2]; listed as phytol (1)): 2.7 ± 0.6 h

The remaining compounds from weak to strong by IC50 (LoVo/DX cells; Homo sapiens, LoVo/DX), led by results:

IC50 (LoVo/DX cells; Homo sapiens, LoVo/DX) | Compound | Mean number of aphids settled on treated (test) leaf (Myzus persicae [1]; 1 h after access) | Mean number of aphids settled on treated (test) leaf (Myzus persicae [1]; 2 h after access) | Mean number of aphids settled on treated (test) leaf (Myzus persicae [1]; 24 h after access) | Mean duration of probing (C + G + E) (Myzus persicae [2]) | Number of probes (Myzus persicae [2]) | Total duration of pathway (C) (Myzus persicae [2]) | Total duration of phloem phase (E) (Myzus persicae [2]) | Total duration of probing (C + G + E) (Myzus persicae [2]) | Number of probes before first phloem phase (Myzus persicae [2]) | Time from first probe to first phloem phase (Myzus persicae [2]) | Duration of first phloem phase (Myzus persicae [2]) | Total duration of phloem salivation E1 (Myzus persicae [2]) | Total duration of phloem sap ingestion E2 (Myzus persicae [2]) | Number of probes < 3 min (Myzus persicae [2]) | Proportion of salivation in phloem phase (Myzus persicae [2]) | Proportion of phloem phase in total probing (Myzus persicae [2]) | Selectivity index SI, LoVo/DX (LoVo/DX cells) | Effect on aphid settling behavior (deterrent / attractant) (Myzus persicae [1]) | further results
188 ± 32.7 µM | CC(C)CCCC(C)CCCC(C)CCC[C@]1(C)CC(=O)O[C@@H]1CCl (stereo in doubt) [compound 6, trans-5-Chloromethyl-4-methyl-4-(4′,8′,12′-trimethyltridecyl)dihydrofuran-2-one] | 5.8 (± 1.3) | 4.5 (± 1.1) | 10.0 (± 1.7) | 1.2 ± 0.7 h | 42.9 ± 10.4 | 3.0 ± 0.5 h | 3.5 ± 0.8 h | 6.6 ± 0.5 h | 24.9 ± 9.0 | 3.0 ± 0.8 h | 2.0 ± 0.8 h | 3.0 ± 1.2 min | 3.5 ± 0.8 h | 20.3 ± 7.9 | 9.7% | 46.7% | 1.46 | attractant properties | 
55 ± 1.5 µM | C=CC(C)(CCCC(C)CCCC(C)CCCC(C)C)CC(=O)O (centres unmarked) [compound 3, 3,7,11,15-tetramethyl-3-vinylhexadecanoic acid] | 8.5 (± 2.1) | 8.9 (± 1.0) | 8.1 (± 1.3) | 1.6 ± 0.7 h | 25.3 ± 6.7 | 2.9 ± 0.5 h | 4.1 ± 0.8 h | 7.2 ± 0.2 h | 15.7 ± 5.9 | 2.0 ± 0.5 h | 3.3 ± 0.9 h | 9.0 ± 6.0 min | 3.9 ± 0.8 h | 10.9 ± 4.4 | 8.4% | 52.6% | 2.64 |  | 
